Measured values taken from ChEMBL document CHEMBL1914304 (J Med Chem, 2011).

What was measured:
[1] = Selectivity ratio of EC50 for human HepG2 cells to EC50 for Plasmodium falciparum
Raji = assay: Cytotoxicity against human Raji cells after 72 hrs by luminescence assay; type: cell-based
HepG2 = assay: Cytotoxicity against human HepG2 cells after 72 hrs by luminescence assay; type: cell-based; conditions: hepg2, 72 h
HEK293 = assay: Cytotoxicity against human HEK293 cells after 72 hrs by luminescence assay; type: cell-based; conditions: hek293, 72 h
BJ = assay: Cytotoxicity against human BJ cells after 72 hrs by luminescence assay; type: cell-based

Compound | selectivity ratio [1] | Activity (Raji) | Activity (HepG2) | Activity (HEK293) | Activity (BJ)
COc1cccc(N2CCN(CC(O)COc3ccccc3C(=O)CCc3ccccc3)CC2)c1.Cl (racemic) | > 10 | Non-toxic | Non-toxic | Non-toxic | Non-toxic
COc1ccc(N2CCN(CC(O)COc3ccccc3C(=O)CCc3ccccc3)CC2)cc1.Cl (racemic) | > 10 | Non-toxic | Non-toxic | Non-toxic | Non-toxic
Cl.O=C(CCc1ccccc1)c1ccccc1OCC(O)CN1CCN(c2ccccc2Cl)CC1 (racemic) | > 10 | Non-toxic | Non-toxic | Non-toxic | Non-toxic
Cl.O=C(CCc1ccccc1)c1ccccc1OCC(O)CN1CCN(c2ccc(Cl)cc2)CC1 (racemic) | > 10 | Non-toxic | Non-toxic | Non-toxic | Non-toxic
Cl.O=C(CCc1ccccc1)c1ccccc1OCC(O)CN1CCN(c2ccc(Cl)c(Cl)c2)CC1 (racemic) | > 10 | Non-toxic | Non-toxic | Non-toxic | Non-toxic
Cl.O=C(CCc1ccccc1)c1ccccc1OCC(O)CN1CCN(c2ccccc2F)CC1 (racemic) | > 10 | Non-toxic | Non-toxic | Non-toxic | Non-toxic
Cl.O=C(CCc1ccccc1)c1ccccc1OCC(O)CN1CCN(c2ccc(F)cc2)CC1 (racemic) | > 10 | Non-toxic | Non-toxic | Non-toxic | Non-toxic
Cl.O=C(CCc1ccccc1)c1ccccc1OCC(O)CN1CCN(c2ccc([N+](=O)[O-])cc2)CC1 (racemic) | > 10 | Non-toxic | Non-toxic | Non-toxic | Non-toxic
Cl.Nc1ccc(N2CCN(CC(O)COc3ccccc3C(=O)CCc3ccccc3)CC2)cc1 (racemic) | > 10 | Non-toxic | Non-toxic | Non-toxic | Non-toxic
Cl.O=C(CCc1ccccc1)c1ccccc1OCC(O)CN1CCN(c2ccc(O)cc2)CC1 (racemic) | > 10 | Non-toxic | Non-toxic | Non-toxic | Non-toxic
Cl.O=C(CCc1ccccc1)c1ccccc1OCC(O)CN1CCN(c2ccc(C(F)(F)F)cc2)CC1 (racemic) | > 10 | Non-toxic | Non-toxic | Non-toxic | Non-toxic
Cl.O=C(CCc1ccccc1)c1ccccc1OCC(O)CN1CCN(C(=O)c2ccccc2)CC1 (racemic) | > 10 | Non-toxic | Non-toxic | Non-toxic | Non-toxic
CN1CCN(CC(O)COc2ccccc2C(=O)CCc2ccccc2)CC1.Cl (racemic) | > 10 | Non-toxic | Non-toxic | Non-toxic | Non-toxic
CCN1CCN(CC(O)COc2ccccc2C(=O)CCc2ccccc2)CC1.Cl (racemic) | > 10 | Non-toxic | Non-toxic | Non-toxic | Non-toxic
Cl.O=C(CCc1ccccc1)c1ccccc1OCC(O)CN1CCOCC1 (racemic) | > 10 | Non-toxic | Non-toxic | Non-toxic | Non-toxic
Cc1cccc([N+]2(c3ccccc3)CCN(CC(O)COc3ccccc3C(=O)CCc3ccc(F)cc3)CC2)c1.[Cl-] (racemic) | > 10 | Non-toxic | Non-toxic | Non-toxic | Non-toxic
Cl.O=C(CCc1ccc(F)cc1)c1ccccc1OCC(O)CN1CCCCC1 (racemic) | > 10 | Non-toxic | Non-toxic | Non-toxic | Non-toxic
Cl.O=C(CCc1ccc(F)cc1)c1ccccc1OCC(O)CN1CCC(c2ccccc2)CC1 (racemic) | > 10 | Non-toxic | Non-toxic | Non-toxic | Non-toxic
Cl.O=C(CCc1ccc(F)cc1)c1ccccc1OCC(O)CN1CCC(Cc2ccccc2)CC1 (racemic) | > 10 | Non-toxic | Non-toxic | Non-toxic | Non-toxic

Compound | selectivity ratio [1] | Activity (Raji) | Activity (HepG2) | Activity (HEK293) | Activity (BJ)
Cl.O=C(CCc1ccc(F)cc1)c1ccccc1OCC(O)CN1CCC(c2ccc(Cl)cc2)CC1 (racemic) | > 10 | Non-toxic | Non-toxic | Non-toxic | Non-toxic
Cl.O=C(CCc1ccc(F)cc1)c1ccccc1OCC(O)CN1CCC(O)(Cc2ccccc2)CC1 (racemic) | > 10 | Non-toxic | Non-toxic | Non-toxic | Non-toxic
Cl.O=C(CCc1ccc(F)cc1)c1ccccc1OCC(O)CN1CCC(O)(c2ccc(Cl)cc2)CC1 (racemic) | > 10 | Non-toxic | Non-toxic | Non-toxic | Non-toxic
Cl.O=C(CCc1ccc(F)cc1)c1ccccc1OCC(O)CN1CCN(c2ccccc2)CC1 (racemic) | > 10 | Non-toxic | Non-toxic | Non-toxic | Non-toxic
Cl.O=C(CCc1ccc(F)cc1)c1ccccc1OCC(O)CN1CCN(Cc2ccccc2)CC1 (racemic) | > 10 | Non-toxic | Non-toxic | Non-toxic | Non-toxic
Cc1ccccc1N1CCN(CC(O)COc2ccccc2C(=O)CCc2ccc(F)cc2)CC1.Cl (racemic) | > 10 | Non-toxic | Non-toxic | Non-toxic | Non-toxic
Cc1cccc(N2CCN(CC(O)COc3ccccc3C(=O)CCc3ccc(F)cc3)CC2)c1.Cl (racemic) | > 10 | Non-toxic | Non-toxic | Non-toxic | Non-toxic
Cc1ccc(N2CCN(CC(O)COc3ccccc3C(=O)CCc3ccc(F)cc3)CC2)cc1.Cl (racemic) | > 10 | Non-toxic | Non-toxic | Non-toxic | Non-toxic
COc1ccccc1N1CCN(CC(O)COc2ccccc2C(=O)CCc2ccc(F)cc2)CC1.Cl (racemic) | > 10 | Non-toxic | Non-toxic | Non-toxic | Non-toxic
COc1cccc(N2CCN(CC(O)COc3ccccc3C(=O)CCc3ccc(F)cc3)CC2)c1.Cl (racemic) | > 10 | Non-toxic | Non-toxic | Non-toxic | Non-toxic
COc1ccc(N2CCN(CC(O)COc3ccccc3C(=O)CCc3ccc(F)cc3)CC2)cc1.Cl (racemic) | > 10 | Non-toxic | Non-toxic | Non-toxic | Non-toxic
Cl.O=C(CCc1ccc(F)cc1)c1ccccc1OCC(O)CN1CCN(c2ccccc2Cl)CC1 (racemic) | > 10 | Non-toxic | Non-toxic | Non-toxic | Non-toxic
Cl.O=C(CCc1ccc(F)cc1)c1ccccc1OCC(O)CN1CCN(c2ccc(Cl)cc2)CC1 (racemic) | > 10 | Non-toxic | Non-toxic | Non-toxic | Non-toxic
Cl.O=C(CCc1ccc(F)cc1)c1ccccc1OCC(O)CN1CCN(c2ccc(Cl)c(Cl)c2)CC1 (racemic) | > 10 | Non-toxic | Non-toxic | Non-toxic | Non-toxic
Cl.O=C(CCc1ccc(F)cc1)c1ccccc1OCC(O)CN1CCN(c2ccccc2F)CC1 (racemic) | > 10 | Non-toxic | Non-toxic | Non-toxic | Non-toxic
Cl.O=C(CCc1ccc(F)cc1)c1ccccc1OCC(O)CN1CCN(c2ccc(F)cc2)CC1 (racemic) | > 10 | Non-toxic | Non-toxic | Non-toxic | Non-toxic
Cl.O=C(CCc1ccc(F)cc1)c1ccccc1OCC(O)CN1CCN(c2ccc([N+](=O)[O-])cc2)CC1 (racemic) | > 10 | Non-toxic | Non-toxic | Non-toxic | Non-toxic
Cl.Nc1ccc(N2CCN(CC(O)COc3ccccc3C(=O)CCc3ccc(F)cc3)CC2)cc1 (racemic) | > 10 | Non-toxic | Non-toxic | Non-toxic | Non-toxic
Cl.O=C(CCc1ccc(F)cc1)c1ccccc1OCC(O)CN1CCN(c2ccc(O)cc2)CC1 (racemic) | > 10 | Non-toxic | Non-toxic | Non-toxic | Non-toxic
